Assay results as given in patent US10905770B2, “Topical delivery of therapeutic agents using cell-penetrating peptides for the treatment of age-related macular degeneration and other eye diseases” (priority 2017, dated 2021).
Entries after “also recorded” stand apart in the source; their conditions may differ.

Tests used:
[1] = Experimental: (§1) Lutein was dissolved in DMSO (10 mg/mL) and titrated into water. […] As a proxy for topical delivery into the eye by eye drop, 50 μL of lutein plus hexa-arginine (SEQ ID NO: 258) or lutein alone was applied to one side of the outer shell membrane of a chicken egg, and the material that crossed the membrane in water was collected after 2 minutes. The level of lutein was measured by absorbance. The experiment was conducted three times (n=3).
as §1, with “Zeaxanthin” for “Lutein”, “DMF” for “DMSO”, “zeaxanthin” for “lutein”
as §1, with “into water, zeaxanthin was dissolved in DMF (10 mg/mL) and titrated into water, and then lutein and zeaxanthin were mixed in a 1:1 ratio.” for “into water.”, “lutein and zeaxanthin” for “lutein”, “NO: 258),” for “NO: 258)”, “lutein and zeaxanthin without CPP,” for “lutein alone”
as §1, with “Dexamethasone” for “Lutein”, “DMSO” for “DMSO (10 mg/mL)”, “dexamethasone” for “lutein”, “presence” for “level”, “detected” for “measured”, “electrospray mass spectroscopy.” for “absorbance. The experiment was conducted three times (n=3).”
Tacrolimus was dissolved in DMSO and titrated into water. […] As a proxy for topical delivery into the eye by eye drop, 50 μL of tacrolimus plus hexa-arginine (SEQ ID NO: 258) or tacrolimus alone was applied to one side of the outer shell membrane of a chicken egg, and the material that crossed the membrane in water was collected after 2 minutes. The presence of tacrolimus was detected by electrospray mass spectroscopy.
as §1, with “Adalimumab” for “Lutein”, “fluorescently tagged” for “dissolved in DMSO (10 mg/mL)”, “purified.” for “titrated into water.”, “adalimumab” for “lutein”, “PBS” for “water”, “fluorescence.” for “absorbance.”
As a proxy for topical delivery into the eye by eye drop, 50 μL of glucose plus hexa-arginine (SEQ ID NO: 258) or glucose alone was applied to one side of the outer shell membrane of a chicken egg, and the material that crossed the membrane in water was collected after 2 minutes. The presence of glucose was detected by electrospray mass spectroscopy.
(§2) As a proxy for topical delivery into the eye by eye drop, 50 μL of BDNF plus hexa-arginine (SEQ ID NO: 258) or BDNF alone was applied to one side of the outer shell membrane of a chicken egg, and the material that crossed the membrane in PBS was collected after 2 minutes. The level of BDNF was measured by ELISA. The experiment was conducted three times (n=3).
as §2, with “GDNF” for “BDNF”, “ELISA.” for “ELISA. The experiment was conducted three times (n=3).”

[2] = test system: geriatric macaques with naturally occurring age-related maculopathy; assay: Bruch's membrane thickness by electron microscopy, macaque study; assay type: in vivo, Macaca fascicularis
Experimental: (§3) The macaque study was conducted according to accepted guidelines. […] One eye per animal received 6 monthly injections of the same escalating dosages of L-4F or scrambled L-4F (total of 625 μg) in a 50 μL volume. The second eye per animal was not injected and was just observed.
Lipid deposition in the Bruch's membrane contributes to thickening of the BrM. Bruch's membrane thickness was measured at the temporal outer macula of enucleated eyes examined by electron microscopy post-mortem.

[3] = test system: esterified cholesterol in the Bruch's membrane; assay: Filipin staining of esterified cholesterol in Bruch's membrane, macaque study; assay type: in vivo, Macaca fascicularis; settings: eyes injected with L-4F vs placebo-injected eyes; 6 monthly intravitreal injections
Experimental: as §3
(§4) Clinical laboratory tests including serology, hemograms and liver enzymes were conducted, and ophthalmic examinations were also performed, including fundus photographs, optical coherence tomography (OCT), intraocular pressure testing and blood sampling. After 7 months, all animals were sacrificed and eyes were immediately prepared for histology. […]
For staining with filipin, specimens were washed once with deionized water for 5 min and then treated with 70% ethanol for 45 min. […] The specimens were then washed sequentially with PBS and deionized water, mounted with a mounting solution (Mowiol®, Carl Roth GmbH, Karlsruhe, Germany), covered with a glass cover slip, and examined using an inverted fluorescence microscope (DMI 6000 from Leica Microsystems, Wetzlar, Germany). Filipin fluorescence was observed using a UV filter set (λex/λem=350 nm/455 nm). […] Semiquantitative analysis of fluorescence intensity of filipin at three separate regions of the BrM was done on three different slides from the same eye (a total of 9 different regions from each eye).

[4] = test system: neutral lipids in and on the Bruch's membrane; assay: Oil red O staining of neutral lipids in Bruch's membrane, macaque study; assay type: in vivo, Macaca fascicularis; settings: eyes injected with L-4F vs eyes injected with placebo; 6 monthly intravitreal injections (total 625 μg); after 6 months
Experimental: as §3
as §4, with “histology. Histochemistry was performed with oil red O for neutral lipids and filipin for esterified cholesterol.” for “histology.”
For staining with oil red O (ORO), specimens were treated with a 0.3% oil red O (Sigma-Aldrich Biochemie GmbH, Hamburg, Germany) solution (in 99% isopropanol) for 30 min at room temperature (RT), followed by immersion in a 60% isopropanol solution for 12 min. […] Image analysis was performed by grading the intensity of ORO staining (red color) of the Bruch's membrane (BrM) with scores ranging from 0 to 4, according to a qualitative evaluation assessed in four different regions in two separate slices from each eye (a total of 8 different regions from each eye). […]

[5] = test system: geriatric macaques with naturally occurring age-related maculopathy; assay: Macaque study: fellow non-injected eye, tolerability and blood hsCRP; assay type: in vivo
Experimental: as §3
Clinical laboratory tests including serology, hemograms and liver enzymes were conducted, and ophthalmic examinations were also performed, including fundus photographs, optical coherence tomography (OCT), intraocular pressure testing and blood sampling. After 7 months, all animals were sacrificed and eyes were immediately prepared for histology. Histochemistry was performed with oil red O for neutral lipids and filipin for esterified cholesterol. Immunohistochemistry was performed against complement factor D (CFD) and the membrane attack complex (MAC, C5b-9), both being markers of activation of the alternative complement pathway.
Circulating hsCRP, which is mainly produced in the liver, is a non-specific marker for systemic inflammation.

[6] = test system: membrane attack complex (MAC, C5b-9); assay: Immunohistochemistry of membrane attack complex, macaque study; assay type: in vivo, Macaca fascicularis; settings: eyes injected with L-4F vs eyes injected with the scrambled peptide; fluorescence intensity
Experimental: as §3, §4
(§5) Assays for immunohistochemistry of the membrane attack complex (MAC, C5b-9) and complement factor D (CFD) were performed identically except for employment of monoclonal antibodies specific for each complement component. […] Fluorescence microscopy was conducted using an inverted fluorescence microscope (DMI 6000 from Leica Microsystems, Wetzlar, Germany) and a filter set for λex/λem=470 nm/525 nm. For the semiquantitative analysis of fluorescence intensity of C5b-9, 3-5 different regions in one slide were analyzed for 3 different slides from each eye (a total of 9-15 different regions from each eye). For the semiquantitative analysis of fluorescence intensity of complement factor D, 3 distinct regions for each eye were evaluated.

[7] = test system: complement factor D (CFD); assay: Immunohistochemistry of complement factor D, macaque study; assay type: in vivo, Macaca fascicularis; settings: eyes injected with L-4F vs eyes injected with the scrambled peptide; fluorescence intensity
Experimental: as §3, §4, §5

rat eye in vivo = assay: CPP-assisted delivery into rat eye in vivo
Experimental: An eye drop of 50 μL of bevacizumab plus hexa-arginine (SEQ ID NO: 258) was applied topically to the front of one of the eyes of a live rat, and then the rat was sacrificed 60 minutes after topical application.

geographic atrophy (GA) = settings: vs placebo, cited from earlier work

C[C@@H]1C[C@H]2[C@@H]3CCC4=CC(=O)C=C[C@]4(C)[C@@]3(F)[C@@H](O)C[C@]2(C)[C@@]1(O)C(=O)CO [dexamethasone, reference compound]
crossing of the egg shell membrane (electrospray mass spectroscopy) [1]: did not cross

CC1=C[C@H](O)CC(C)(C)[C@H]1/C=C/C(C)=C/C=C/C(C)=C/C=C/C=C(C)/C=C/C=C(C)/C=C/C1=C(C)C[C@@H](O)CC1(C)C [lutein]
crossing of the egg shell membrane [1]: did not cross

C=CC[C@@H]1/C=C(\C)C[C@H](C)C[C@H](OC)[C@H]2O[C@@](O)(C(=O)C(=O)N3CCCC[C@H]3C(=O)O[C@H](/C(C)=C/[C@@H]3CC[C@@H](O)[C@H](OC)C3)[C@H](C)[C@@H](O)CC1=O)[C@H](C)C[C@@H]2OC [tacrolimus, reference compound]
crossing of the egg shell membrane (electrospray mass spectroscopy) [1]: did not cross

CC1=C(/C=C/C(C)=C/C=C/C(C)=C/C=C/C=C(C)/C=C/C=C(C)/C=C/C2=C(C)C[C@@H](O)CC2(C)C)C(C)(C)C[C@H](O)C1 [zeaxanthin]
crossing of the egg shell membrane [1]: a very small amount

Ac-DWFKAFYDKVAEKFKEAF-NH2 [L-4F]
reduction of BrM thickness ([2]; eyes injected with L-4F vs eyes injected with placebo): about 24% | BrM thickness ([2]; eyes injected with L-4F, temporal outer macula, electron microscopy post-mortem, ±SE): 1.31 μm | reduction of esterified cholesterol in the BrM (filipin fluorescence) [3]: about 68% | reduction of lipid deposits from the BrM (staining with oil red O) [4]: about 56% | blood level of high-sensitivity C-reactive protein (hsCRP) ([5]; after 6 monthly intravitreal injections vs day prior to first injection): did not increase | tolerability (adverse events, side effects) ([5]; macaques intravitreally injected with L-4F): well tolerated | decreased level of MAC (C5b-9) in the BrM and the choriocapillaris [6]: about 58% | decreased level of complement factor D [7]: about 41%

adalimumab
amount that crossed the membrane with hexa-arginine compared with without [1]: markedly greater | fluorescence of material that crossed the egg shell membrane [1]: 1359±3

bevacizumab: anti-VEGF antibody
delivery into the posterior segment (the vitreous and the retina) of the treated eye (rat eye in vivo; 50 μL eye drop, bevacizumab 25 mg/mL plus hexa-arginine 5 mg/mL, 60 minutes, human IgG ELISA): entered; also recorded: delivered | level in the bloodstream (rat eye in vivo; 60 minutes after topical application): not detected | level in the fellow untreated eye (rat eye in vivo; 60 minutes after topical application to the other eye, human IgG ELISA): not detected

lampalizumab: antigen-binding fragment (Fab) of a humanized monoclonal antibody targeting CFD
reduction in the rate of GA enlargement, and hence the area of GA, in the injected eye (geographic atrophy (GA); monthly intravitreal injections of 10 mg for 18 months, fundus autofluorescence): about 20% | reduction in the GA growth rate, and hence the area of GA (geographic atrophy (GA); subgroup positive for CFI mutations, monthly intravitreal 10 mg for 18 months): about 44%

B1: BDNF: brain-derived neurotrophic factor (protein, UniProt P23560 19-247, looked up)
Neurotrophic factor BDNF …: APMKEANIRGQGGLAYPGVRTHGTLESVNGPKAGSRGLTSLADTFEHVIEELLDEDQKVRPNEENNKDADLYTSRVMLSSQVPLEPPLLFLLEEYKNYLDAANMSMRVRRHSDPARRGELSVCDSISEWVTAADKKTAVDMSGGTVTVLEKVPVSKGQLKQYFYETKCNPMGYTKEGCRGIDKRHWNSQCRTTQSYVRALTMDSKKRIGWRFIRIDTSCVCTLTIKRGR
crossing of the egg shell membrane [1]: did not cross

B2: GDNF: glial cell-derived neurotrophic factor (protein, UniProt P39905 78-211, looked up)
Glial cell line-derived …: SPDKQMAVLPRRERNRQAAAANPENSRGKGRRGQRGKNRGCVLTAIHLNVTDLGLGYETKEELIFRYCSGSCDAAETTYDKILKNLSRNRRLVSDKVGQACCRPIAFDDDLSFLDDNLVYHILRKHSAKRCGCI
crossing of the egg shell membrane [1]: did not cross
